Laboratory results as given in US10828316B2, “Method of treating bacterial infections” (priority 2016, dated 2020).
Values after ≈ are worked out from the molar mass of the structure shown. Read-outs that look alike come from different tables or passages of the source.

Columns and labels:
E. coli strain no 5 = assay: MIC; type: cell-based; conditions: Escherichia coli, NO5, read-out: MIC of AZT
A. baumannii strain no 3 = assay: MIC; type: cell-based, Acinetobacter baumannii; conditions: for MIC of AZT: A. baumannii strain no 3
[1] = system: P. aeruginosa strain no 10; assay: MIC; type: cell-based, Pseudomonas aeruginosa; conditions: for MIC of AZT: P. aeruginosa strain no 10
K. pneumoniae EN011 = assay: MIC; type: cell-based, Klebsiella pneumoniae; conditions: Klebsiella pneumoniae, EN011, K. pneumoniae EN011; Combination 1 (AZT+trimethoprim+uridine)
E. coli EN013 = assay: MIC; type: cell-based, Escherichia coli; conditions: Escherichia coli, EN013, E. coli EN013
P. aeruginosa EN0004 = assay: MIC; type: cell-based; conditions: in AZT+trimethoprim+uridine combination
A. baumannii EN0007 = assay: MIC; type: cell-based, A. baumanii; conditions: in AZT+trimethoprim+uridine combination
E. coli strain no 2 = assay: MIC; conditions: Escherichia coli
S. aureus strain no 13 = assay: MIC; conditions: Staphylococcus aureus, NO13, read-out: MIC of AZT
E. coli ATCC 25922 = assay: MIC, in vitro sensitivity of the strain used in vivo; conditions: Escherichia coli, ATCC25922, read-out: MIC against E. coli ATCC 25922

Q: What does the source list for `Cc1cn([C@H]2C[C@H](N=[N+]=[N-])[C@@H](CO)O2)c(=O)[nH]c1=O` [AZT, 3′-azido-3′-deoxythymidine]?
A: MIC (E. coli strain no 5): 4 to 8 µg/mL; MIC of AZT (A. baumannii strain no 3; uridine 10 μg/ml): >150 µg/mL; MIC of AZT (A. baumannii strain no 3; uridine 50 μg/ml): >150 µg/mL; MIC of AZT (A. baumannii strain no 3; uridine 100 μg/ml): >150 µg/mL; MIC of AZT (A. baumannii strain no 3; uridine 200 μg/ml): >150 µg/mL; MIC (A. baumannii strain no 3; Acinetobacter baumannii, NO3, read-out: MIC of AZT): > 150 µg/mL; MIC of AZT ([1]; uridine 10 μg/ml): >150 µg/mL; MIC of AZT ([1]; uridine 50 μg/ml): >150 µg/mL; MIC of AZT ([1]; uridine 100 μg/ml): >150 µg/mL; MIC of AZT ([1]; uridine 200 μg/ml): >150 µg/mL; MIC ([1]; Pseudomonas aeruginosa, NO10, read-out: MIC of AZT): > 150 µg/mL; MIC (K. pneumoniae EN011): 0.032 µg/mL; MIC (E. coli EN013; Combination 1 (AZT+trimethoprim+uridine)): < 0.008 µg/mL; MIC (E. coli EN013; Combination 2 (same mixed with thymidine)): < 0.008 µg/mL; MIC (E. coli EN013; in AZT+trimethoprim+uridine combination): < 0.008 µg/mL; MIC (P. aeruginosa EN0004): >4 µg/mL; MIC (A. baumannii EN0007): >4 µg/mL; MIC (E. coli strain no 2; NO2, E. coli strain 2, 5 uM thymidine, uridine 0 μg/ml): > 30 µg/mL; MIC (E. coli strain no 2; NO2, E. coli strain 2, 5 uM thymidine, uridine 10 μg/ml): 25 to 30 µg/mL (≈ 93.5 to 112 µM); MIC (E. coli strain no 2; NO2, E. coli strain 2, 5 uM thymidine, uridine 100 μg/ml): 10 to 20 µg/mL (≈ 37.4 to 74.8 µM); MIC (E. coli strain no 2; NO2, read-out: MIC AZT, E. coli strain 2, thymidine 0 μM, uridine 0): 20 to 30 µg/mL (≈ 74.8 to 112 µM); MIC (E. coli strain no 2; NO2, read-out: MIC AZT, E. coli strain 2, thymidine 0 μM, uridine 100 μg/ml): 5 to 10 µg/mL (≈ 18.7 to 37.4 µM); MIC (E. coli strain no 2; NO2, read-out: MIC AZT, E. coli strain 2, thymidine 10 μM, uridine 0): > 30 µg/mL; MIC (E. coli strain no 2; NO2, read-out: MIC AZT, E. coli strain 2, thymidine 10 μM, uridine 100 μg/ml): > 30 µg/mL; MIC (E. coli strain no 2; NO2, read-out: MIC AZT, E. coli strain 2, thymidine 10 μM, uridine 100 and trimethoprim 1 μg/ml): 0.1 to 0.5 µg/mL (≈ 0.374 to 1.87 µM); MIC (E. coli strain no 2; NO2, read-out: MIC AZT, E. coli strain 2, thymidine 30 μM, uridine 0): > 30 µg/mL; MIC (E. coli strain no 2; NO2, read-out: MIC AZT, E. coli strain 2, thymidine 30 μM, uridine 100 μg/ml): > 30 µg/mL; MIC (E. coli strain no 2; NO2, read-out: MIC of AZT, E. coli strain no 2, trimethoprim 0.5 μg/ml, uridine 0 μg/ml): 0.012 to 0.025 µg/mL; MIC (E. coli strain no 2; NO2, read-out: MIC of AZT, E. coli strain no 2, trimethoprim 0.5 μg/ml, uridine 1 μg/ml): ≤ 0.006 µg/mL; MIC (E. coli strain no 2; NO2, read-out: MIC of AZT, E. coli strain no 2, trimethoprim 0.5 μg/ml, uridine 10 μg/ml): 0.05 to 0.1 µg/mL; MIC (E. coli strain no 2; NO2, read-out: MIC of AZT, E. coli strain no 2, trimethoprim 0.5 μg/ml, uridine 100 μg/ml): 0.025 to 0.05 µg/mL; MIC (E. coli strain no 2; NO2, read-out: MIC of AZT, E. coli strain no 2, trimethoprim 0.5 μg/ml, uridine 200 μg/ml): 0.012 to 0.025 µg/mL; MIC (E. coli strain no 2; NO2, read-out: MIC of AZT, E. coli strain no 2, trimethoprim 1 μg/ml, uridine 0 μg/ml): 0.012 to 0.025 µg/mL; MIC (E. coli strain no 2; NO2, read-out: MIC of AZT, E. coli strain no 2, trimethoprim 1 μg/ml, uridine 1 μg/ml): ≤ 0.006 µg/mL; MIC (E. coli strain no 2; NO2, read-out: MIC of AZT, E. coli strain no 2, trimethoprim 1 μg/ml, uridine 10 μg/ml): ≤ 0.006 µg/mL; MIC (E. coli strain no 2; NO2, read-out: MIC of AZT, E. coli strain no 2, trimethoprim 1 μg/ml, uridine 100 μg/ml): 0.025 to 0.05 µg/mL; MIC (E. coli strain no 2; NO2, read-out: MIC of AZT, E. coli strain no 2, trimethoprim 1 μg/ml, uridine 200 μg/ml): 0.012 to 0.025 µg/mL; MIC (E. coli strain no 2; NO2, read-out: MIC of AZT, E. coli strain no 2, trimethoprim 2 μg/ml, uridine 0 μg/ml): 0.006 to 0.012 µg/mL; MIC (E. coli strain no 2; NO2, read-out: MIC of AZT, E. coli strain no 2, trimethoprim 2 μg/ml, uridine 1 μg/ml): ≤ 0.006 µg/mL; MIC (E. coli strain no 2; NO2, read-out: MIC of AZT, E. coli strain no 2, trimethoprim 2 μg/ml, uridine 10 μg/ml): ≤ 0.006 µg/mL; MIC (E. coli strain no 2; NO2, read-out: MIC of AZT, E. coli strain no 2, trimethoprim 2 μg/ml, uridine 100 μg/ml): 0.012 to 0.025 µg/mL; MIC (E. coli strain no 2; NO2, read-out: MIC of AZT, E. coli strain no 2, trimethoprim 2 μg/ml, uridine 200 μg/ml): 0.006 to 0.012 µg/mL; MIC (E. coli strain no 2; NO2, read-out: MIC of AZT, E. coli strain no 2, uridine 0 μg/ml): 20 to 25 µg/mL; MIC (E. coli strain no 2; NO2, read-out: MIC of AZT, E. coli strain no 2, uridine 10 μg/ml): 20 to 25 µg/mL; MIC (E. coli strain no 2; NO2, read-out: MIC of AZT, E. coli strain no 2, uridine 50 μg/ml): 15 to 20 µg/mL; MIC (E. coli strain no 2; NO2, read-out: MIC of AZT, E. coli strain no 2, uridine 100 μg/ml): 5 to 15 µg/mL; MIC (E. coli strain no 2; NO2, read-out: MIC of AZT, E. coli strain no 2, uridine 200 μg/ml): 5 to 15 µg/mL; MIC (E. coli strain no 2; NO2, read-out: MIC of AZT, Table 3, E. coli strain no 2, trimethoprim 0, uridine 0 μg/ml): 20 to 25 µg/mL; MIC (E. coli strain no 2; NO2, read-out: MIC of AZT, Table 3, E. coli strain no 2, trimethoprim 0, uridine 1 μg/ml): 10 to 20 µg/mL; MIC (E. coli strain no 2; NO2, read-out: MIC of AZT, Table 3, E. coli strain no 2, trimethoprim 0, uridine 10 μg/ml): 10 to 20 µg/mL; MIC (E. coli strain no 2; NO2, read-out: MIC of AZT, Table 3, E. coli strain no 2, trimethoprim 0, uridine 100 μg/ml): 2 to 10 µg/mL; MIC (E. coli strain no 2; NO2, read-out: MIC of AZT, Table 3, E. coli strain no 2, trimethoprim 0, uridine 200 μg/ml): 2 to 10 µg/mL; MIC (S. aureus strain no 13): > 150 µg/mL; log diff peritoneum vs start of treatment (E. coli; AZT 30 mg/kg): 0.38; mean log peritoneum (E. coli; AZT 30 mg/kg): 5.68; score at sampling (E. coli; AZT 30 mg/kg, single mice): 1; inhibition in mice infected with E. coli (E. coli; murine peritonitis model): slight inhibition; MIC (E. coli ATCC 25922): > 2 µg/mL
